Laboratory results reported in paper PMC6268439, “Tebrophen — An Old Polyphenol Drug with Anticancer Potential ^†” (Molecules, 2012).

Columns and labels:
Assay type in all cases: biochemical
ZAP-70 = target: T1, ZAP-70 (Homo sapiens, UniProt P43403); assay: ELISA kinase assay with purified kinase expressed in Sf9, poly Glu:Tyr ([…]) substrate
T1 construct: gene ZAP70
T1 sequence (P43403 1-619): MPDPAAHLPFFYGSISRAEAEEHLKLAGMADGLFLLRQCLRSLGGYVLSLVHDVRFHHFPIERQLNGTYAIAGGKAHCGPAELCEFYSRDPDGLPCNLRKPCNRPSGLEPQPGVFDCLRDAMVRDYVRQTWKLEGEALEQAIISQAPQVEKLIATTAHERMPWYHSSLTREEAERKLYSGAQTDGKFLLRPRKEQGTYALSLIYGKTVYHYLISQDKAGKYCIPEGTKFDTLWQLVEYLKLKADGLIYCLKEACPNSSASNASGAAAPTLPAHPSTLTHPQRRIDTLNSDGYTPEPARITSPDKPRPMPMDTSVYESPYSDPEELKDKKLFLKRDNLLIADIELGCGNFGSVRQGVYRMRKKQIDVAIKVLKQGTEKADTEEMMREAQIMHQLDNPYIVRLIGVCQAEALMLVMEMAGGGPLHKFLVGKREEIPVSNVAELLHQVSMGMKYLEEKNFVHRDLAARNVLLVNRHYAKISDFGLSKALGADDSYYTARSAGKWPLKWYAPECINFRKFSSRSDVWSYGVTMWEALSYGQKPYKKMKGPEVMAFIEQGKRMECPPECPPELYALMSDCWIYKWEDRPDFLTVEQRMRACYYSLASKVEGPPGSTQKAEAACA

Lck = Lck (Homo sapiens, UniProt P06239); assay: as above
Chain of Lck (P06239 2-509): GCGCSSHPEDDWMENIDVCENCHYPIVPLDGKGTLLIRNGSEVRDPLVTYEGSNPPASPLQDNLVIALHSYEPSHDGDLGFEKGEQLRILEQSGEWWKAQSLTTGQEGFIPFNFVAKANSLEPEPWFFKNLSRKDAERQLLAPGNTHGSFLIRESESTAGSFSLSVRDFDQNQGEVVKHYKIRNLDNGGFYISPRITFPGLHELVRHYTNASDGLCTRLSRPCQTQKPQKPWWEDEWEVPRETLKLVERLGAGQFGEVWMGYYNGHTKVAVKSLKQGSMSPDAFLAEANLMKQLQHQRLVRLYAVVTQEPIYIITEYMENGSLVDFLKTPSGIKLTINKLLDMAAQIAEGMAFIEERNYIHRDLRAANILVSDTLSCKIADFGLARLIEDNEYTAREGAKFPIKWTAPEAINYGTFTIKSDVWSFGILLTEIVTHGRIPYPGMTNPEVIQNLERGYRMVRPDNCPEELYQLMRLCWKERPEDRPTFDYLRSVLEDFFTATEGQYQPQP

[1] = target: T2, Dipeptidyl peptidase IV (DPPIV/CD26) (Homo sapiens, UniProt P27487); assay: enzyme assay with H-Gly-Pro-pNA substrate; […] inhibition at […]
T2 construct: gene DPP4
T2 sequence (P27487 39-766): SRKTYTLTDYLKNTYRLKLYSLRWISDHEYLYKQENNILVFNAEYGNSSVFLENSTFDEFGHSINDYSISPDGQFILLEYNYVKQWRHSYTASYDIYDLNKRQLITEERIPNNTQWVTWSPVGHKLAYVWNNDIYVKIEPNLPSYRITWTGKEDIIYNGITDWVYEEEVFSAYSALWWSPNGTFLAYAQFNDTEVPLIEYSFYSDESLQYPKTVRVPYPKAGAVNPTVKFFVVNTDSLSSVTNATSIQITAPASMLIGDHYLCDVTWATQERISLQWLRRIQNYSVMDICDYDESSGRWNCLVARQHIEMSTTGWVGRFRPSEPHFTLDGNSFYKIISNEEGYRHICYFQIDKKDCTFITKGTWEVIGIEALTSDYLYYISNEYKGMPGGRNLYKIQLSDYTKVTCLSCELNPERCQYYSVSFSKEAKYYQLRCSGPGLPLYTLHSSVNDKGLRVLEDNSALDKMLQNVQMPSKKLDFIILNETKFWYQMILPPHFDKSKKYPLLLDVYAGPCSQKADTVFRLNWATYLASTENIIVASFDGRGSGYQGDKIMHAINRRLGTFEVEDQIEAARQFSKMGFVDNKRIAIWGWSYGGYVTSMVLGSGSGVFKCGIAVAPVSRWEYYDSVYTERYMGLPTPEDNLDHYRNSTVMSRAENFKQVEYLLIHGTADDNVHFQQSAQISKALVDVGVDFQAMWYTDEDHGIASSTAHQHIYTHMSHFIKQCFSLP

## Oc1c(Br)cc(-c2cc(Br)c(O)c(Br)c2O)c(O)c1Br [tebrophen, 3,3',5,5'-tetrabromobiphenyl-2,2',4,4'-tetrol]
ZAP-70
  IC50: 0.34 µM
Lck
  IC50: 16 µM
[1]
  inhibition at 80 µM: 41%
